For assay [1], the target named is T1, IDH2-R140Q mutant enzyme (Homo sapiens, UniProt P48735, R140Q).
T1 construct: purchased BPS 71100-1
T1 sequence (P48735 40-452 R140Q): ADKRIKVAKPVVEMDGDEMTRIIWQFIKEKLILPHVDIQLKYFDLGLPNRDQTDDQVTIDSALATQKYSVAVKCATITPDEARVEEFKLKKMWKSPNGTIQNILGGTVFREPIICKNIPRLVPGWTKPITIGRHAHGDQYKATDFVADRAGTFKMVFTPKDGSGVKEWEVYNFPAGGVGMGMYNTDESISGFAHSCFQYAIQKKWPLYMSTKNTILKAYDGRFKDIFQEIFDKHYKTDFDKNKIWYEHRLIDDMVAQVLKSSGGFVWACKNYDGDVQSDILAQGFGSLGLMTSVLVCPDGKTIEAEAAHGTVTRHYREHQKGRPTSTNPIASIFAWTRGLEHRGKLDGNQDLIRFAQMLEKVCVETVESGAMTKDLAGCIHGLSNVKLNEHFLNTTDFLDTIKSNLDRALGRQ
In words: Inhibitory activity of compounds on IDH2-R140Q enzyme in vitro (diaphorase/resazurin fluorescence). Type of assay: biochemical. To be noted: IDH2-R140Q, pre-incubated 16 h with enzyme and NADPH, reaction 1 h with α-ketoglutarate; read-out: R140Q IC50. On the procedure:
Instrument: SpectraMax M3 Multi-Mode Microplate Reader, purchased from Molecular Devices.
In a 96-well plate, 40 μL of reaction buffer containing 2× enzyme (IDH2-WT or IDH2-R140Q) and cofactor (NADP or NADPH) was added to each well of the compound group and the DMSO control group, and 40 μL of reaction buffer containing 2× cofactor (NADP or NADPH) was added to each well of the enzyme-free control group.
20 μL of reaction buffer containing 4× compound to be tested was added to each well of the compound group. The compound was pre-formulated into 200× mother liquor with 100% DMSO; in the final reaction system, the concentration of DMSO was 0.5%. 20 μL of reaction buffer containing DMSO was added to each well of the DMSO control group; in the final reaction system, the concentration of DMSO was 0.5%.
The compound was mixed well with the enzyme and cofactor, and pre-incubated at room temperature for 16 h;
20 μL of reaction buffer containing 4× reaction substrate was added to each well. After mixed uniformly, the mixture was reacted at room temperature for 1 h.
3× termination and detection solution (it was prepared with reaction buffer, the final concentration of Diaphorase was 0.015 mg/mL, and the final concentration of Resazurin was 0.03 mM) was prepared. 40 μL of 3× termination and detection solution was added to each well of the enzyme reaction system. After mixed uniformly, the mixture was incubated at room temperature for 10 min;
Fluorescence values of two wells were obtained and averaged and the activity rate (Activity %) was calculated. The calculation formula: Activity %=(Measured data−Subtract background)/(DMSO Control−Subtract background)×100, wherein “Measured data” is fluorescence value of the compound in the pre-incubated wells, “Subtract background” is the fluorescence value of the enzyme-free control wells, and “DMSO Control” is the fluorescence value in the DMSO pre-incubated wells. Data was processed by GraphPad Prism v5.0 software and fitted to obtain IC50.
(Resazurin is reduced to fluorescent resorufin, in cell work by metabolically active cells.)

The target in assay [2] is T2, U87-MG cell line of overexpressed mutant IDH2 (R140Q) (Homo sapiens, UniProt P48735, R140Q).
T2 construct: expressed in transfected cells
T2 sequence (P48735 40-452 R140Q): T1 sequence (P48735 40-452 R140Q)
In words: Cell activity in vitro: 2-HG in culture supernatant of U87-MG (IDH2-R140Q) cells by LC-MS/MS. The format is cell-based. Particulars: U87-MG (IDH2-R140Q) cells, 72 hours, 2-HG in supernatant; read-out: IC50 (2-HG remaining compared to untreated). On the procedure: 1.2 Cells: human glioblastoma cell line U87-MG, purchased from the American Type Culture Collection (ATCC);
Cell recovery: U87-MG (IDH2-R140Q) cells and U87-MG cells were put into a 37° C. water bath, then transferred to 15 mL of pre-warmed medium, centrifuged at 1000 rpm for 5 minutes, and the medium was discarded. The cells were resuspended in 15 mL of fresh medium, transferred to a T75 flask and cultured in a 37° C. incubator with 5% CO2. After 24 hours, the medium was changed to fresh medium.
Cell passage: The above-mentioned recovered cells were transferred to a 50 mL sterile centrifuge tube, centrifuged at 1000 rpm for 5 minutes, and the medium was discarded. The cells were resuspended evenly and counted. The cell density was adjusted appropriately in a 15 mL fresh medium, and then added to T75 culture flask. The culture flask was incubated in an incubator with 5% CO2 at 37° C.
After cells grown to a relatively high density in the culture dish, the cells were trypsinized, resuspended in medium (MEM+10% FBS), and counted. After adjusting the cell concentration, the resuspended cells were seeded in a 96-well plate at 5×10^3 cells per well. After inoculation, the cells were cultured for 24 hours until the cells adhered. The medium were sucked out, and the medium containing gradient concentration of compound was added, 100 μL per well. The cells were further cultured for 72 hours. The s 20 μL of upernatant was taken and put into a 2 mL 96-well sample-processing plate. 480 μL of dilution solution was added and shaken for mixing, and then centrifuged at 4500 rpm for 5 minutes. 200 μL of supernatant was transferred for LC-MS/MS injection analysis.
Column: Shim-pack XR-ODS 30L*2.0; mobile phase: acetonitrile-0.2% ammonia, 5 mM ammonium acetate aqueous solution; column temperature: 30° C.; flow rate: 0.4 mL/min; gradient elution conditions are as follows: […]
Atmospheric […] chemical ionization (APCI) was used. Source parameters was set as follows: IonSpray Voltage/IS-4500V; auxiliary gas 1 (Ion Source Gas 1/GS 1, N2), 55Arb; auxiliary gas 2 (Ion Source Gas 2, N2), 55Arb; auxiliary gas heating temperature (Temperature/TEM), 500° C.; curtain gas/CUR, 25Arb; collision gas/CAD, N2, 8 Pa.
Multi-ion reaction monitoring (MRM) in negative ion mode (Negative) was used. […] The internal standard (IS) MRM parameters: parent ion (Q 1 Mass), 178.0 Da; daughter ion (Q3 Mass), 149.0 Da; Decluster Potential (DP), −51V; collision voltage (Collision Energy/CE), −17 eV
By determining the 2-HG content in the cell culture supernatant of each well using LC-MS/MS, the mutant enzyme activity (2-HG remaining compared to untreated %) was calculated. The calculation formula: 2-HG remaining compared to untreated %=(Measured 2-HG level—U87-MG control 2-HG level)/(Untreated 2-HG level—U87-MG control 2-HG level)×100. […] Data were processed by GraphPad Prism v5.0 software and fitted to obtain IC50.

Assay [3] relates to U87-MG (IDH2-R140Q) subcutaneous xenograft tumor. In words: Subcutaneous xenograft tumor caused by U87-MG (IDH2-R140Q) mutant cells in vivo: intratumor 2-HG. Also on record: species or system BALB/c nude mice. Particulars: for Intratumor 2-HG(%) after 10 days of administration: intragastric, mean, relative to U87-MG (IDH2-R140Q) control group; for ability of lowering 2-HG level compared with positive compound AG-221: U87-MG (IDH2-R140Q) subcutaneous xenograft model. The text has this:
1.2 Animals: BALB/c nude mice, 6-7 weeks old, female, 18-22 g, purchased from Nanjing Jinlaichang Company.
U87-MG (IDH2-R140Q) cells and U87-MG cells (wild type) were expanded, and cells in logarithmic growth phase were used for tumor inoculation in vivo. 16 mice were inoculated subcutaneously into the right lower back of the body at an amount of 2×10^6 cells/mouse (the volume ratio of cell suspension to Matrigel was 1:0.8).
The non-mutation control group was nude mice inoculated with U87-MG cells, and the test compound groups and vehicle control group were nude mice inoculated with U87-MG (IDH2-R140Q) cells.
Each group was intragastrically administered with a corresponding concentration of the compound solution, the administration volume was 100 μL/10 g body weight, and the control group was administered the same volume of blank vehicle.
After 10 days of administration, the mice were sacrificed. The tumors were exfoliated, homogenized, and the 2-HG content in the tumor was examined.
The 2-HG concentration in the homogenate of each animal tumor in each group was determined by LC-MS/MS. The percentage (2-HG %) was calculated; the calculation formula is as follows 2-HG %=(2-HG concentration of administration group tumor−2-HG concentration of U87-MG control group tumor)/(2-HG concentration of U87−MG(IDH2-R140Q) control group tumor−2-HG concentration of U87-MG control group tumor)×100%.

Molecules are shown by their SMILES. pIC50: −log10 of the molar value.

By pIC50 is commonly meant the IC50 on a negative log10 scale, so that one unit is a factor of ten.

Turning to `FC1(F)CCN(c2nc(Nc3ccnc(C(F)(F)F)c3)nc(-c3cccc(C(F)(F)F)n3)n2)CC1` [Example 1, 4-(4,4-Difluoropiperidin-1-yl)-6-(6-(trifluoromethyl)pyridin-2-yl)-N-(2-(trifluoromethyl)pyridin-4-yl)-1,3,5-triazin-2-amine], the pIC50 in assay [1] is 7.96; in assay [2], 7.82. For the same compound, the “Intratumor 2-HG(%) after 10 days of administration” value (“Intratumor 2-HG(%) after 10 days” for short) in assay [3] (25 mg/kg) worked out at 22%.
For `FC1(F)CCCN(c2nc(Nc3ccnc(C(F)(F)F)c3)nc(-c3cccc(C(F)(F)F)n3)n2)C1` [Example 2, 4-(3,3-Difluoropiperidin-1-yl)-6-(6-(trifluoromethyl)pyridin-2-yl)-N-(2-(trifluoromethyl)pyridin-4-yl)-1,3,5-triazin-2-amine], the figures for the pIC50 in assay [1] and in assay [2] were 7.64 and 7.57, respectively. Further, the “Intratumor 2-HG(%) after 10 days” value in assay [3] (12.5 mg/kg) was 14%.
For `OC1CCCN(c2nc(Nc3ccnc(C(F)(F)F)c3)nc(-c3cccc(C(F)(F)F)n3)n2)C1` (stereo not shown) [Example 3, 4-(3-Hydroxypiperidin-1-yl)-6-(6-(trifluoromethyl)pyridin-2-yl)-N-(2-(trifluoromethyl)pyridin-4-yl)-1,3,5-triazin-2-amine], the pIC50 in assay [1] is 7.66; in assay [2] it was 7.62. Moreover, the “Intratumor 2-HG(%) after 10 days” value in assay [3] (12.5 mg/kg) worked out at 22%.
Turning to `O[C@H]1CN(c2nc(Nc3ccnc(C(F)(F)F)c3)nc(-c3cccc(C(F)(F)F)n3)n2)C[C@@H]1F` [Example 23, 4-((3S,4S)-3-hydroxy-4-fluoropyrrolidin-1-yl)-6-(6-(trifluoromethyl)pyridin-2-yl)-N-(2-(trifluoromethyl)pyridin-4-yl)-1,3,5-triazin-2-amine], the pIC50 in assay [1] was 7.52. Besides, the “Intratumor 2-HG(%) after 10 days” value in assay [3] (6.25 mg/kg) was 67%.
As for `OC1(C(F)(F)F)CN(c2nc(Nc3ccnc(C(F)(F)F)c3)nc(-c3cccc(C(F)(F)F)n3)n2)C1` [Example 34], the pIC50 in assay [1] was 7.85; in assay [2] it was 7.77. In assay [3] (12.5 mg/kg), the “Intratumor 2-HG(%) after 10 days” value turned out to be 24%.
Turning to `FC(F)(F)c1cc(Nc2nc(OCC(F)(F)C(F)(F)F)nc(-c3cccc(C(F)(F)F)n3)n2)ccn1` [Example 45, 4-(2,2,3,3,3-pentafluoropropoxy)-6-(6-(trifluoromethyl)pyridin-2-yl)-N-(2-(trifluoromethyl)pyridin-4-yl)-1,3,5-triazin-2-amine], the values for the pIC50 in assay [1] and in assay [2] were 8.20 and 7.99, respectively. Further, the “Intratumor 2-HG(%) after 10 days” value in assay [3] (6.25 mg/kg) was determined as 17%. Besides, the “ability of lowering 2-HG level compared with positive compound AG-221” value in assay [3] is “substantially superior”.
For `N#C[C@H]1CCN(c2nc(Nc3ccnc(C(F)(F)F)c3)nc(-c3cccc(C(F)(F)F)n3)n2)C1` [Example 51, 4-((S)-3-cyanopyrrolidin-1-yl)-6-(6-(trifluoromethyl)pyridin-2-yl)-N-(2-(trifluoromethyl)pyridin-4-yl)-1,3,5-triazin-2-amine], in assay [1], the negative-log IC50 (pIC50) is 7.74. The “Intratumor 2-HG(%) after 10 days” value in assay [3] (6.25 mg/kg) is given as 38%. Further, the “ability of lowering 2-HG level compared with positive compound AG-221” value in assay [3] is given as “substantially superior”.
On to `FC(F)(F)c1cc(Nc2nc(-c3cccc(C(F)(F)F)n3)nc(N3CC(F)(F)C(F)(F)C3)n2)ccn1` [Example 55, 4-(3,3,4,4-Tetrafluoropyrrolidin-1-yl)-6-(6-(trifluoromethyl)pyridin-2-yl)-N-(2-(trifluoromethyl)pyridin-4-yl)-1,3,5-triazin-2-amine], for which the values for the pIC50 in assay [1] and in assay [2] were 8.00 and 7.82, respectively. The “Intratumor 2-HG(%) after 10 days” value in assay [3] (6.25 mg/kg) stood at 1%. The “ability of lowering 2-HG level compared with positive compound AG-221” value in assay [3] is “substantially superior”.

Source of the values: US10961222B2, “Chemical compound of isocitrate dehydrogenase inhibitor, and application thereof” (NANJING SANHOME PHARMACEUTICAL CO., LTD., priority 2016, dated 2021).
